Laboratory results from US7150974B1, “Parathyroid hormone receptor binding method” (The General Hospital Corporation, priority 1991, dated 2006).
“Also recorded” adds a separate entry of the source.

Key:
Assay type in all cases: cell-based
[1] = biological target: T1, opossum kidney PTH/PTHrP receptor clone, OK-H (Didelphis virginiana, UniProt P25107, I132F/S86P); experiment: Inositol phosphate metabolism, COS cells expressing OK-H; conditions: FIG. 15, listed as NlePTH
T1 construct: expressed in transfected cells; host or cells: COS cells, transient, plasmid OK-H (pcDNA I)

[2] = biological target: T2, opossum kidney PTH/PTHrp receptor clone, OK-O (Didelphis virginiana, UniProt P25107, I132F/S86P); experiment: Inositol phosphate metabolism, COS cells expressing OK-O; conditions: FIG. 15, listed as NlePTH
T2 construct: expressed in transfected cells; host or cells: COS cells, transient, plasmid OK-O (pcDNA I)

[3] = biological target: T3, rat bone PTH/PTHrP receptor (Rattus norvegicus, UniProt P25961, E586G); experiment: Intracellular free calcium, COS-7 cells expressing R15B; conditions: COS-7 cells expressing rat receptor
T3 construct: expressed in transfected cells; host or cells: COS / COS-7 cells, transient, plasmid R15B (pcDNA I)
T3 sequence (P25961 27-591 E586G): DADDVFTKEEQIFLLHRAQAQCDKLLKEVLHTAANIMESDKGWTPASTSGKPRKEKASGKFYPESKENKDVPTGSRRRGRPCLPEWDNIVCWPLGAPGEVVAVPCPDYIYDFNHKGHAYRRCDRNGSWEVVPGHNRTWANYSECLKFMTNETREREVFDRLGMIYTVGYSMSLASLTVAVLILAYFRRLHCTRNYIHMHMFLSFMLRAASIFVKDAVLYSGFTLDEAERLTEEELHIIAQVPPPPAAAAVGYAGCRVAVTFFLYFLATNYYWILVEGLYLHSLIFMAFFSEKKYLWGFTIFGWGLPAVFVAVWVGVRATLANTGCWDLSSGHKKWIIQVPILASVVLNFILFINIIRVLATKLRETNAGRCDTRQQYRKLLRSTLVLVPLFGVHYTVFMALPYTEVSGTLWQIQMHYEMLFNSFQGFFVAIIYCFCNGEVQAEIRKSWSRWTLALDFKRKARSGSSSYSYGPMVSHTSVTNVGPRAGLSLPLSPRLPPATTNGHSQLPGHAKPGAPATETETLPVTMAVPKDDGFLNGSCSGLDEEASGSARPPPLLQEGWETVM
Protocol: Details of the methodology are:
Coverslips plated with COS cells were incubated in Fura-2 AM loading buffer containing, in mM: HEPES (N-[2-Hydroxyethyl]piperazine-N′-[2-ethanesulfonic acid]), 20; CaCl2, 1; KCl 5; NaCl, 145; MgSO4, 0.5; NaHCO3, 25; K2HPO4, 1.4; glucose, 10; and Fura-2 AM 91-(2-5′-carboxyoxazol-2′-yl)-6-aminobenzofuran-5oxy-(2′-amino-5′-methylphenoxy)ethane-N,N,N′,N′-tetraaecetic acid acetomethoxy ester), 0.5; at 37° C. at pH7.4, aerated with 95% air and 5% CO2 for 45 minutes. Cells loaded with Fura-2 AM were then washed with a modified Krebs-Heinseleit (KH) buffer containing, in mM: HEPES, 20; CaCl2, 1; KCl, 5; NaCl, 145; MgSO4, 0.5; Na2HPO4, 1; glucose, 5; pH7.4. To check that cleavage of the ester occurred, the excitation spectra after different times of Fura-2 AM incubation were measured.
To measure fluorescence of individual cells, the cover slips were placed in a microscope tissue chamber (Biophysica Technologies, Inc., MD). The chamber consisted of a shallow, sloped compartment made of Teflon with a silicone rubber seal. The cover slips served as the bottom of the chamber. A heater/cooler ring was encased in the silicone rubber which sealed the coverslip in place.

[4] = biological target: T1, opossum kidney PTH/PTHrP receptor clone, OK-H; experiment: cAMP accumulation, COS cells expressing OK-H; conditions: FIG. 16
Protocol: Intracellular cAMP accumulation was measured as described previously (Abou-Samra et al., J. Biol. Chem. 262:1129, 1986). Cells in 24-well plates were rinsed with culture medium containing 0.1% BSA and 2 mM IBMX. The cells were then incubated with PTH or PTHrP for 15 min. at 37° C. The supernatant was removed and the cells immediately frozen by placing the whole plate in dry ice powder. Intracellular cAMP was extracted by thawing the cells in 1 ml of 50 mM HCl and analyzed by a specific radioimmunoassay using an anti-cAMP antibody (e.g., Sigma, St. Louis, Mo.). A cAMP analog (2′-O-monosuccinyl-adenosine 3′:5′-cyclic monophosphate tyrosyl methyl ester, obtained from Sigma) which was used a tracer for cAMP was iodinated by the chloramine T method. Free iodine was removed by adsorbing the iodinated cAMP analog onto a C18 Sep-pak cartridge (Waters, Milford, Mass.). After washing with dH2O, the iodinated cAMP analog was eluted from the Sep-pak Cartridge with 40% acetonitrille (ACN) and 0.1% trifluoroacetic acid (TFA). The iodinated cAMP analog was lyophilized, reconstituted in 1 ml 0.1% TFA, and injected into a C18 reverse phase HPLC column (Waters). […] The supernatant was removed and the bound radioactivity was counted in a γ-counter (Micromedic). Standard curves were calculated using the four-parameter RIA program supplied by Micromedic. […]

T1 sequence (P25107 other isoform, or with tags, fused parts or gaps S86P/I132F): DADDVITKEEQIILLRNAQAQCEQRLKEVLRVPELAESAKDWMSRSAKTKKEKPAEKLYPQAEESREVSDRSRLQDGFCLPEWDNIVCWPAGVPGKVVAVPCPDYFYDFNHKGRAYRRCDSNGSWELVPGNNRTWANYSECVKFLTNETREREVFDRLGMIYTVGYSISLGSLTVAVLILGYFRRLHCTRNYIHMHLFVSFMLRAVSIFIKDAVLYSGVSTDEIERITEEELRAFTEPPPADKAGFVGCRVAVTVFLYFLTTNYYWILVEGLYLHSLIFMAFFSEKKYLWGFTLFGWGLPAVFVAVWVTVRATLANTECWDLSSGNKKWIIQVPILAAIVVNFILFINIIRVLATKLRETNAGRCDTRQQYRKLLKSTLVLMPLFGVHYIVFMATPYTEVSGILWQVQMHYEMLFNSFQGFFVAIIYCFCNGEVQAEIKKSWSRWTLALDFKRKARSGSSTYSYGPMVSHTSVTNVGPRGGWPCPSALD
T2 sequence (P25107 27-585 S86P/I132F): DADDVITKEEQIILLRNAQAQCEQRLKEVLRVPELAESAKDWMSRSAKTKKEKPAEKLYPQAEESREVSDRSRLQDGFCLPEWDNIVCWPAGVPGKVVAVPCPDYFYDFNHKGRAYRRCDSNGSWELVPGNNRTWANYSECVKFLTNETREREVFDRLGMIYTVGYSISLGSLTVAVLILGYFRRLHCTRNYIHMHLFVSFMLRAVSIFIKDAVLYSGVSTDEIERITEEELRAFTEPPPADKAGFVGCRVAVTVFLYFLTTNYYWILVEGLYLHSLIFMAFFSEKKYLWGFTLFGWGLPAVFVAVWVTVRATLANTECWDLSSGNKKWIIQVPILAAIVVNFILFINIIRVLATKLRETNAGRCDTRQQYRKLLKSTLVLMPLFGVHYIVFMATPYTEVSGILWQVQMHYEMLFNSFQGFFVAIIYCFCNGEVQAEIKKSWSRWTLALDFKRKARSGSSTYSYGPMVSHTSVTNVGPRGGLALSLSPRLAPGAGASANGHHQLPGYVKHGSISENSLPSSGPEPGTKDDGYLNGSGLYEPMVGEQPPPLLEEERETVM

With [Nle^8,18, Tyr^34]bPTH(1-34)amide the “inositol phosphate metabolism (IP3 and IP2 accumulation)” value [1] was “do not show a detectable increase; also recorded: did not show any detectable increase”, the “inositol phosphate metabolism (IP3 and IP2 accumulation)” value [2] was “rapid increase” and the “increase in intracellular free calcium, PTH(1-34) compared with PTHrP(1-36)” value [3] was “to the same extent”. For the same substance, the cAMP accumulation [4] was “increase cAMP accumulation”.
